Reference: patent US12060355B2, “Compounds for use in the treatment of fascioliasis” (Merck Patent GmbH, priority 2018, dated 2024)

The molecules below were run on human HepG2 cell lines. Settings: human HepG2 cell line.
Assay type: cell-based

SMILES | Cytotox HepG2
CC(C)c1nc2cnc(-c3ccc(F)c(C(F)(F)F)c3)cn2c1-c1ccc2[nH]ncc2c1F [Example 2, 4-fluoro-5-{6-[4-fluoro-3-(trifluoromethyl)phenyl]-2-(propan-2-yl)imidazo[1,2-a]pyrazin-3-yl}-1H-indazole] | 10.4 µM
Cc1nc2cnc(-c3cccc(C(F)(F)F)c3)cn2c1-c1c(F)cc(O)cc1F [Example 15, 3,5-difluoro-4-[2-methyl-6-[3-(trifluoromethyl)phenyl]imidazo[1,2-a]pyrazin-3-yl]phenol] | 8.4 µM
Cc1nc2cnc(-c3ccc(F)c(C(F)(F)F)c3)cn2c1-c1c(F)cc(O)cc1F [Example 16, 3,5-difluoro-4-[2-methyl-6-[4-fluoro-3-(trifluoromethyl)phenyl]imidazo[1,2-a]pyrazin-3-yl]phenol] | 7.6 µM
CC(C)c1nc2cnc(-c3cccc(C(F)(F)F)c3)cn2c1-c1c(F)cc(O)cc1F [Example 19, 3,5-difluoro-4-[2-(propan-2-yl)-6-[3-(trifluoromethyl)phenyl]imidazo[1,2-a]pyrazin-3-yl]phenol] | 7.5 µM
CC(C)c1nc2cnc(-c3cccc(C(F)(F)F)c3)cn2c1-c1ccc2[nH]ncc2c1F [Example 21, 4-fluoro-5-{2-propan-2-yl-6-[3-trifluoromethylphenyl]imidazo[1,2-a]pyrazin-3-yl}-1H-indazole] | 15.1 µM
CC(C)c1nn2cnc(-c3cccc(C(F)(F)F)c3)cc2c1-c1c(F)cc(O)cc1F [Example 24, 3,5-difluoro-4-(2-isopropyl-5-(3-(trifluoromethyl)phenyl)pyrazolo[1,5-c]pyrimidin-3-yl)phenol] | 8.4 µM
Fc1c(-c2c(C(F)(F)F)nc3cnc(-c4cccc(C(F)(F)C(F)(F)F)c4)cn23)ccc2[nH]ncc12 [Example 29, 4-fluoro-5-{2-trifluoromethyl-6-[3-(pentafluoroethyl)phenyl]imidazo[1,2-a]pyrazin-3-yl}-1H-indazole] | 8.9 µM
COc1ccc(-c2c(C(F)(F)F)nc3cnc(-c4cccc(C(F)(F)C(F)(F)F)c4)cn23)cc1O [Example 30, 2-methoxy-5-[2-(trifluoromethyl)-6-[3-(pentafluoroethyl)phenyl]imidazo[1,2-a]pyrazin-3-yl]phenol] | 11.1 µM
Fc1ccc(-c2cn3c(-c4ccc5[nH]ncc5c4F)c(C4CC4)nc3cn2)cc1C(F)(F)F [Example 32, 4-fluoro-5-{2-cyclopropyl-6-[4-fluoro-3-(trifluoromethyl)phenyl]imidazo[1,2-a]pyrazin-3-yl}-1H-indazole] | 16.1 µM
CC1(c2nc3cnc(-c4ccc(F)c(C(F)(F)F)c4)cn3c2-c2c(F)cc(O)cc2F)CC1 [Example 33, 3,5-difluoro-4-[2-(1-methyl-cycloprop-1-yl)-6-[4-fluoro-3-(trifluoromethyl)phenyl]imidazo[1,2-a]pyrazin-3-yl]phenol] | 7.9 µM
Oc1cc(F)c(-c2c(C3CC3)nc3cnc(-c4ccc(F)c(C(F)(F)F)c4)cn23)c(F)c1 [Example 34, 4-(2-cyclopropyl-6-(4-fluoro-3-(trifluoromethyl)phenyl)imidazo[1,2-a]pyrazin-3-yl)-3,5-difluorophenol] | 8.9 µM
Oc1cc(F)c(-c2c(C3CCC3)nc3cnc(-c4ccc(F)c(C(F)(F)F)c4)cn23)c(F)c1 [Example 35, 4-(2-cyclobutyl-6-(4-fluoro-3-(trifluoromethyl)phenyl)imidazo[1,2-a]pyrazin-3-yl)-3,5-difluorophenol] | 5.7 µM
CCc1nc2cnc(-c3ccc(F)c(C(F)(F)F)c3)cn2c1-c1c(F)cc(O)cc1F [Example 36, 3,5-difluoro-4-[2-ethyl-6-[4-fluoro-3-(trifluoromethyl)phenyl]imidazo[1,2-a]pyrazin-3-yl]phenol] | 8.3 µM
CCc1nc2cnc(-c3ccc(F)c(C(F)(F)F)c3)cn2c1-c1ccc2[nH]ncc2c1F [Example 37, 4-fluoro-5-{2-ethyl-6-[4-fluoro-3-(trifluoromethyl)phenyl]imidazo[1,2-a]pyrazin-3-yl}-1H-indazole] | 13.1 µM
CC(C)c1nc2cnc(-c3cccc(S(F)(F)(F)(F)F)c3)cn2c1-c1c(F)cc(O)cc1F [Example 39, 3,5-difluoro-4-[2-(propan-2-yl)-6-[3-(pentafluorosulfanyl)phenyl]imidazo[1,2-a]pyrazin-3-yl]phenol] | 6.6 µM
Fc1c(-c2c(C3CC3)nc3cnc(-c4cccc(S(F)(F)(F)(F)F)c4)cn23)ccc2[nH]ncc12 [Example 46, 2-cyclopropyl-3-(4-fluoro-1H-indazol-5-yl)-6-(3-(pentafluoro-λ6-sulfaneyl)phenyl)imidazo[1,2-a]pyrazine] | 20.7 µM
CCc1nn2cnc(-c3ccc(F)c(C(F)(F)F)c3)cc2c1-c1c(F)cc(O)cc1F [Example 48, 4-(2-ethyl-5-(4-fluoro-3-(trifluoromethyl)phenyl)pyrazolo[1,5-c]pyrimidin-3-yl)-3,5-difluorophenol] | 9.8 µM

SMILES | Cytotox HepG2
Cc1nc2cnc(-c3cccc(C(F)(F)C(F)(F)F)c3)cn2c1-c1c(F)cc(O)cc1F [Example 49, 3,5-difluoro-4-[2-methyl-6-[3-(pentafluoroethyl)phenyl]imidazo[1,2-a]pyrazin-3-yl]phenol] | 9.3 µM
CCc1nc2cnc(-c3cccc(C(F)(F)C(F)(F)F)c3)cn2c1-c1c(F)cc(O)cc1F [Example 52, 4-[2-Ethyl-6-(3-pentafluoroethyl-phenyl)-imidazo[1,2-a]pyrazin-3-yl]-3,5-difluoro-phenol] | 8.0 µM
Cc1nc2cnc(-c3ccc(F)c(C(F)(F)C(F)(F)F)c3)cn2c1-c1c(F)cc(O)cc1F [Example 53, 3,5-Difluoro-4-[6-(4-fluoro-3-pentafluoroethyl-phenyl)-2-methyl-imidazo[1,2-a]pyrazin-3-yl]-phenol] | 8.8 µM
Oc1cc(F)c(-c2c(C3CC3)nc3cnc(-c4ccc(F)c(S(F)(F)(F)(F)F)c4)cn23)c(F)c1 [Example 56, 4-[2-Cyclopropyl-6-(4-fluoro-3-pentafluorosulfanyl-phenyl)-imidazo[1,2-a]pyrazin-3-yl]-3,5-difluoro-phenol] | 10.1 µM
Fc1ccc(-c2cn3c(-c4ccc5[nH]ncc5c4F)c(C4CC4)nc3cn2)cc1S(F)(F)(F)(F)F [Example 57, 2-Cyclopropyl-3-(4-fluoro-1H-indazol-5-yl)-6-(4-fluoro-3-pentafluorosulfanyl-phenyl)-imidazo[1,2-a]pyrazine] | 14.8 µM
CC(C)c1nn2cnc(-c3ccc(F)c(C(F)(F)C(F)(F)F)c3)cc2c1-c1ccc2[nH]ncc2c1F [Example 58, 3-(4-Fluoro-1H-indazol-5-yl)-5-(4-fluoro-3-pentafluoroethyl-phenyl)-2-isopropyl-pyrazolo[1,5-c]pyrimidine] | 10.8 µM
Fc1ccc(-c2cn3c(-c4ccc5[nH]ncc5c4F)c(C(F)(F)F)nc3cn2)cc1C(F)(F)C(F)(F)F [Example 63, 3-(4-Fluoro-1H-indazol-5-yl)-6-(4-fluoro-3-pentafluoroethyl-phenyl)-2-trifluoromethyl-imidazo[1,2-a]pyrazine] | 11.7 µM
Fc1ccc(-c2cn3c(-c4ccc5[nH]ncc5c4F)c(C(F)(F)F)nc3cn2)cc1S(F)(F)(F)(F)F [Example 65, 3-(4-Fluoro-1H-indazol-5-yl)-6-(4-fluoro-3-pentafluorosulfanyl-phenyl)-2-trifluoromethyl-imidazo[1,2-a]pyrazine] | 11.1 µM
CC(C)c1cccc(-c2cn3c(-c4ccc5[nH]ncc5c4F)c(C(F)(F)F)nc3cn2)c1 [Example 66, 3-(4-Fluoro-1H-indazol-5-yl)-6-(3-isopropyl-phenyl)-2-trifluoromethyl-imidazo[1,2-a]pyrazine] | 12.9 µM
CC(C)c1cc(-c2cn3c(-c4ccc5[nH]ncc5c4F)c(C(F)(F)F)nc3cn2)ccc1F [Example 67, 3-(4-Fluoro-1H-indazol-5-yl)-6-(4-fluoro-3-isopropyl-phenyl)-2-trifluoromethyl-imidazo[1,2-a]pyrazine] | 17.0 µM
Fc1ccc(-c2cn3c(-c4ccc5[nH]ncc5c4F)c(C(F)(F)F)nc3cn2)cc1CC(F)(F)F [Example 69, 3-(4-Fluoro-1H-indazol-5-yl)-6-[4-fluoro-3-(2,2,2-trifluoro-ethyl)-phenyl]-2-trifluoromethyl-imidazo[1,2-a]pyrazine] | 5.3 µM
Fc1ccc(-c2cn3c(-c4ccc5[nH]ncc5c4F)c(C(F)(F)F)nc3cn2)cc1OC(F)(F)F [Example 71, 3-(4-Fluoro-1H-indazol-5-yl)-6-(4-fluoro-3-trifluoromethoxy-phenyl)-2-trifluoromethyl-imidazo[1,2-a]pyrazine] | 12.2 µM
Fc1c(-c2c(C(F)(F)F)nc3cnc(-c4cccc(OC(F)(F)F)c4)cn23)ccc2[nH]ncc12 [Example 72, 3-(4-Fluoro-1H-indazol-5-yl)-6-(3-trifluoromethoxy-phenyl)-2-trifluoromethyl-imidazo[1,2-a]pyrazine] | 9.7 µM
CC(C)c1cc(-c2cn3c(-c4ccc5[nH]ncc5c4F)c(C(C)C)nc3cn2)ccc1F [Example 74, 3-(4-Fluoro-1H-indazol-5-yl)-6-(4-fluoro-3-isopropyl-phenyl)-2-isopropyl-imidazo[1,2-a]pyrazine] | 11.0 µM
CCc1nc2cnc(-c3ccc(F)c(C(C)C)c3)cn2c1-c1ccc2[nH]ncc2c1F [Example 75, 2-Ethyl-3-(4-fluoro-1H-indazol-5-yl)-6-(4-fluoro-3-isopropyl-phenyl)-imidazo[1,2-a]pyrazine] | 11.3 µM
CC(C)c1cc(-c2cn3c(-c4ccc5[nH]ncc5c4F)c(C4CCC4)nc3cn2)ccc1F [Example 77, 2-Cyclobutyl-3-(4-fluoro-1H-indazol-5-yl)-6-(4-fluoro-3-isopropyl-phenyl)-imidazo[1,2-a]pyrazine] | 10.8 µM
CC(C)c1cc(-c2cn3c(-c4ccc5[nH]ncc5c4F)c(C4CC4)nc3cn2)ccc1F [Example 79, 2-Cyclopropyl-3-(4-fluoro-1H-indazol-5-yl)-6-(4-fluoro-3-isopropyl-phenyl)-imidazo[1,2-a]pyrazine] | 15.7 µM
